Like-named read-outs stand apart in the source and are kept apart here.
Columns and labels:
[1] = system: H3K18Ac in HB-CLS-2 cells; assay: H3K18AC in-cell western (ICW) assay; format: cell-based; settings: H3K18Ac in-cell western, read-out: CREBBP ICW IC50
Description: The following example describes methods and materials relating to an H3K18AC in-cell western assay. IC50 values (micromolar (μM)) are summarized in Table 1, Table 2, and Table 3 under the column labeled: “CREBBP ICW IC50 (micromolar).”
MATERIALS: HB-CLS-2 cell line, DMEM: Ham's F12 medium (1:1 mixture), penicillin-streptomycin, heat inactivated fetal bovine serum, D-PBS, Odyssey blocking buffer, 800CW goat anti-rabbit IgG (H+L) antibody, Licor Odyssey CLx Infrared Scanner, H3K18Ac rabbit monoclonal antibody. DRAQS fluorescent probe solution (5 mM), and 100% methanol were commercially available. HB-CLS-2 adherent cells were maintained in complete growth medium (DMEM: Ham's F12 supplemented with 10% v/v heat inactivated fetal bovine serum) and cultured at 37° C. under 5% CO2.
METHOD: Cell Treatment, ICW for detection of H3K18Ac and DNA content. HB-CLS-2 cells were seeded in assay medium (DMEM: Ham's F12 supplemented with 10% v/v heat inactivated fetal bovine serum and 1% Penicillin/Streptomycin) at a concentration of 80,000 cells per mL in a Poly-D-Lysine coated 384-well culture plates at 50 μL per well. Plates were incubated at room temperature for 30 minutes and then incubated at 37° C., 5% CO2 for additional 16-24 hours. Compounds and DMSO normalization were then added directly to the plates using a D300 Digital Dispenser and returned to the incubator at 37° C., 5% CO2 for 2 hrs. After the incubation, the contents of the plates were discarded into the appropriate waste stream and blotted on laboratory tissue to remove residual liquid. 90 μL per well of 100% ice cold methanol was added to the plates and incubated at room temperature for 15 minutes. Then methanol was then discarded into the appropriate waste stream and the plates again blotted on laboratory tissue to remove residual liquid. Plates were transferred to a Biotek 405 plate washer and washed 3 times with 100 μL per well of wash buffer (1X PBS containing 0.1% Triton X-100 (v/v)). Next, 50 μL per well of Odyssey blocking buffer with 0.1% Tween 20 (v/v) was added to each plate and incubated for 1 hour at room temperature. Blocking buffer was removed and 20 μL of primary antibody were added (α-H3K18Ac diluted 1:800 in Odyssey buffer with 0.1% Tween 20 (v/v)) and plates were incubated overnight (16 hours) at 4° C. Plates were washed 5 times with 100 μL per well of wash buffer. Next 20 μL per well of secondary antibody was added (1:400 800CW goat anti-rabbit IgG (H+L) antibody, 1:2000 DRAQ5 in Odyssey buffer with 0.1% Tween 20 (v/v)) and incubated for 1 hour at room temperature. The plates were washed 3 times with 100 μL per well wash buffer then 3 times with 100 μL per well of water. Plates were allowed to dry at room temperature then imaged on the Licor Odyssey CLx machine which measured integrated intensity at 700 nm and 800 nm wavelengths. Both 700 and 800 channels were scanned.

CREBBP (1084-1701) = target: T1, CREBBP (1084-1701) (Homo sapiens, UniProt Q92793); assay: Biochemical assay for CREBBP (1084-1701), SAMDI; settings: SAMDI, read-out: CREBBP Biochemistry IC50
T1 construct: measured in the following biochemical assay using CREBBP (1084-1701); purchased
Description: The following example describes materials and methods relating to a biochemical assay for CREBBP (1084-1701). IC50 values (micromolar (μM)) are summarized in Table 1, Table 2, and Table 3 under the column labeled: “CREBBP Biochemistry IC50 (micromolar).”
MATERIALS: Reagents 1M Tris pH 8.0, Tween 20 10%, DTT, bovine serum gelatin (BSG) 2%, Peptide #233 (biotin-H3 11-25, K14R, K23R), Acetyl-CoA, CREBBP (1084-1701), formic acid (100%), and sodium bicarbonate were commercially available.
METHODS: The effect of compounds was measured in the following biochemical assay using CREBBP (1084-1701). Enzyme mix 30 μL per well was added using a Multi-drop to wells of prepared Compound Stock plate. The enzyme was incubated in the Compound Stock plate for 30 minutes at room temperature. Substrate mix, 20 μL per well, was added to Compound Stock plate using a Multi-drop. The plate was covered and incubate 30 minutes at room temperature. The reaction was stopped with addition of 5 μL per well of 5% formic acid using a Multi-drop. The plate was Incubated for 30 minutes at room temperature. The reaction mixture was neutralized with addition of 5 μL per well of 10% sodium bicarbonate using a Multi-drop. The plate was Incubated for 35 minutes at room temperature. The reaction mixture was Transferred 2.5 μL per well to a SAMDI biochip. The plate was Incubated for 60 minutes at room temperature. The samples were washed, dried, and matrix applied to SAMDI biochip. The SAMDI biochip was then read on the mass spectrometer.

T1 sequence (Q92793 1084-1701): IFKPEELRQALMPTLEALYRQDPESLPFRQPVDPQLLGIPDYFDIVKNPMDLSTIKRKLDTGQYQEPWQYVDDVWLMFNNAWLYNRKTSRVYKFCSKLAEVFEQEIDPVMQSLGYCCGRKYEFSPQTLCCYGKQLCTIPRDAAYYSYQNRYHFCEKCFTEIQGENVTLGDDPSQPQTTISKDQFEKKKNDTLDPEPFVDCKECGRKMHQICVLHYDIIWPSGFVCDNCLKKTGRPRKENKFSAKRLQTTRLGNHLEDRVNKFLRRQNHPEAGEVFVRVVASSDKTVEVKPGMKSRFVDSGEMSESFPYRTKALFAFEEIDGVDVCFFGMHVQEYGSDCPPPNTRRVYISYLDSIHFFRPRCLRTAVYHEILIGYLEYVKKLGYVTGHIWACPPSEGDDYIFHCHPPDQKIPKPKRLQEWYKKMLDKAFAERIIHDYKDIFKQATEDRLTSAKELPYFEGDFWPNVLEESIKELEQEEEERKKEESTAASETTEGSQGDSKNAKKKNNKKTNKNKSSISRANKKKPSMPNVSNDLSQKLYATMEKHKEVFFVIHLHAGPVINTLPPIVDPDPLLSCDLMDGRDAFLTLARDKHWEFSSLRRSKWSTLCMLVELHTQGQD

| SMILES | IC50 ([1]; HB-CLS-2 cells) [µM] | IC50 (CREBBP (1084-1701)) [µM] | also measured |
| --- | --- | --- | --- |
| CCn1ncc(CN(C)C(=O)c2nc(N3CCCNCC3)nc3ccc(Cl)cc23)c1C [Compound 187] |  |  | IC50 [1]: 20 µM |
| CCn1ncc(CN(C)C(=O)c2nc(-c3cnn(CCCN(C)C(=O)OC(C)(C)C)c3)nc3ccc(Cl)cc23)c1C [Compound 188] |  |  | IC50 [1]: 20 µM |
| CCn1ncc(CN(C)C(=O)c2nc(-c3cnn(CCCNC(=O)OC(C)(C)C)c3)nc3ccc(Cl)cc23)c1C [Compound 189] |  |  | IC50 [1]: 20 µM |
| CCn1ncc(CN(C)C(=O)c2nc(-c3cccc(Cl)c3)nc3cc(N4CCOCC4)ccc23)c1C [Compound 191] |  |  | IC50 [1]: 20 µM |
| CCn1ncc(CN(C)C(=O)c2nc(N3CCN(C(C)=O)CC3)nc3ccc(Cl)cc23)c1C [Compound 195] |  |  | IC50 [1]: 20 µM |
| CCn1ncc(CN(C)C(=O)c2nc(-c3cnn(CCN(C)C(=O)OC(C)(C)C)c3)nc3ccc(Cl)cc23)c1C [Compound 197] | 20 |  |  |
| CCn1nc(C)c(CN(C)C(=O)c2nc(-c3ccccc3Cl)nc3ccc(Cl)cc23)c1C [Compound 201] | 20 |  |  |
| CCn1ncc(CN(C)C(=O)c2cc(-c3cn(C)c(C)n3)nc3cc(Cl)ccc23)c1C [Compound 203] | 20 |  |  |
| CCn1ncc(CN(C)C(=O)c2nc(-c3cnn(CC4CCCN4)c3)nc3ccc(Cl)cc23)c1C (stereo not drawn) [Compound 204] | 20 |  |  |
| CCn1ncc(CN(C)C(=O)c2cc(N3CCN(C(=O)OC(C)(C)C)CC3)nc3ccc(Cl)cc23)c1C [Compound 205] | 20 |  |  |
| CCn1ncc(CN(C)C(=O)c2nc(C3CCCN3)nc3ccc(Cl)cc23)c1C (stereo not drawn) [Compound 207] | 20 |  |  |
| CCn1ncc(CN(C)C(=O)c2cc(N3CCN(C)CC3)nc3ccc(Cl)cc23)c1C [Compound 214] | 20 |  |  |
| CCn1ncc(CN(C)C(=O)c2nc(-c3cnn(CCC(O)CNC)c3)nc3ccc(Cl)cc23)c1C (stereo not drawn) [Compound 223] | 20 |  |  |
| CCn1ncc(CN(C)C(=O)c2nc(-c3ccc4ccn(C(=O)OC(C)(C)C)c4c3)nc3ccc(Cl)cc23)c1C [Compound 234] | 20 |  |  |
| CCn1ncc(CN(C)C(=O)c2cc(N3CCN(C(C)=O)CC3)nc3ccc(Cl)cc23)c1C [Compound 244] | 20 |  |  |
| CCn1ncc(CN(C)C(=O)c2cc(N3CCNCC3)nc3ccc(Cl)cc23)c1C [Compound 246] | 20 |  |  |
| CCn1ncc(CN(C)C(=O)c2nc(-c3cnn(CCC(O)CN4CCCC4)c3)nc3ccc(Cl)cc23)c1C (stereo not drawn) [Compound 249] | 20 |  |  |
| CCn1ncc(CN(C)C(=O)c2nc(-c3ccc(OCCN(C)C(=O)OC(C)(C)C)c(F)c3)nc3ccc(Cl)cc23)c1C [Compound 251] | 20 |  |  |
| CCn1ncc(CN(C)C(=O)c2nc(-c3ccc(OCCNC(=O)OC(C)(C)C)c(F)c3)nc3ccc(Cl)cc23)c1C [Compound 252] | 20 |  |  |
| CCn1ncc(CN(C)C(=O)c2cc(-c3ccccc3Cl)nc3cc(F)ccc23)c1C [Compound 253] |  | 90 |  |
| CCn1ncc(CN(C)C(=O)c2nc(-c3cccc(Cl)c3)nc3ccc(Cl)c(C)c23)c1C [Compound 256] |  | 1.4 |  |
| CCn1ncc(CN(C)C(=O)c2cc(-c3cn(C)cn3)nc3cc(Cl)ccc23)c1C [Compound 257] |  | 120 |  |
| CCn1ncc(CN(C)C(=O)c2nc(-c3ccccn3)nc3ccc(Cl)cc23)c1C [Compound 262] |  | 5.4 |  |
| CCn1ncc(CN(C)C(=O)c2cc(-c3ccccc3Cl)nc3cc(C)ccc23)c1C [Compound 263] |  | 87 |  |
| Cc1c(CN(C)C(=O)c2cc(-c3cccc(Cl)c3)nc3ccccc23)cnn1C [Compound 265] |  | 195 |  |
| CCn1ncc(CN(C)C(=O)c2cc(-c3ccccc3Cl)nc3c(Cl)cccc23)c1C [Compound 269] |  | 26 |  |

| SMILES | IC50 ([1]; HB-CLS-2 cells) [µM] | IC50 (CREBBP (1084-1701)) [µM] | also measured |
| --- | --- | --- | --- |
| CCn1ncc(CN(C)C(=O)c2cc(-c3ccccc3Cl)nc3cc(Cl)ccc23)c1C [Compound 270] |  | 25 |  |
| CN(Cc1cc2n(n1)CCC2)C(=O)c1cc(-c2cccc(Cl)c2)nc2ccc(Cl)cc12 [Compound 271] |  | 14 |  |
| CCn1ncc(CN(C)C(=O)c2cc(-c3ccccc3)nc3ccc(OC)cc23)c1C [Compound 272] |  | 66 |  |
| CCn1ncc(CN(C)C(=O)c2cc(-c3cccc(Cl)c3)nc3ccc(OC)cc23)c1C [Compound 273] |  | 19 |  |
| CCc1ncc(CN(C)C(=O)c2nc(-c3cccc(Cl)c3Cl)nc3ccc(Cl)cc23)n1C [Compound 274] |  | 0.0032 |  |
| CCn1ncc(CN(C)C(=O)c2nc(-c3cccc(Cl)c3)nc3ccc(C)cc23)c1C [Compound 275] |  | 0.014 |  |
| CCn1ncc(CN(C)C(=O)c2nc(-c3ncccn3)nc3ccc(Cl)cc23)c1C [Compound 278] |  | 132 |  |
| CCn1ncc(CN(C)C(=O)c2nc(-c3cccc(C(F)(F)F)c3)nc3ccc(Cl)cc23)c1C [Compound 280] |  | 0.27 |  |
| CCn1ncc(CN(C)C(=O)c2cc(-c3cnn(C)c3)nc3ccc(Cl)cc23)c1C [Compound 289] |  | 26 |  |
| CCn1nnc(CN(C)C(=O)c2cc(-c3ccccc3Cl)nc3ccc(Cl)cc23)c1C [Compound 291] |  | 89 |  |
| CCn1nnc(CN(C)C(=O)c2nc(-c3ccccc3Cl)nc3ccc(Cl)cc23)c1C [Compound 292] |  | 50 |  |
| CCc1n[nH]c(CN(C)C(=O)c2cc(-c3ccccc3Cl)nc3ccc(Cl)cc23)c1C [Compound 298] |  | 31 |  |
| Cc1c(CN(C)C(=O)c2cc(-c3cccc(Cl)c3)nc3ccccc23)cnn1C(C)C [Compound 304] |  | 43 |  |
| CCn1ncc(CN(C)C(=O)c2nc(-c3cccc(Cl)c3)nc3ccc(F)cc23)c1C [Compound 309] |  | 1.8 |  |
| CCn1ncc(CN(C)C(=O)c2cc(-c3ccc(N(C)CCN(C)C)c(C)n3)nc3ccc(Cl)cc23)c1C [Compound 420] | 0.74 |  |  |
| CCn1ncc(CN(C)C(=O)c2nc(-c3cc(C(=O)NC4CC4)n(C)n3)nc3ccc(Cl)cc23)c1C [Compound 421] | 0.26 |  |  |
| CCn1ncc(CN(C)C(=O)c2nc(-c3cc(N)c4nc[nH]c4c3)nc3ccc(Cl)cc23)c1C [Compound 422] | 0.6 |  |  |
| CCc1cc(CNC)cc(-c2nc(C(=O)N(C)Cc3cnn(CC)c3C)c3cc(Cl)ccc3n2)c1 [Compound 423] | 0.53 |  |  |
| CCn1ncc(CN(C)C(=O)c2cc(-c3cnc(NCCNC)cn3)nc3ccc(Cl)cc23)c1C [Compound 424] | 0.4 |  |  |
| CCc1nc(-c2cc(C(=O)N(C)Cc3cnn(CC)c3C)c3cc(Cl)ccc3n2)ccc1NCCNC [Compound 425] | 0.15 |  |  |
| CCn1ncc(CN(C)C(=O)c2cc(-c3ccc(NCCNC)c(C)n3)nc3ccc(COC)cc23)c1C [Compound 427] | 0.19 |  |  |
| CCn1ncc(CN(C)C(=O)c2nc(-c3ccc(OC4CCNCC4)c(OC)c3)nc3ccc(Cl)cc23)c1C [Compound 428] | 1.4 |  |  |
| CCn1ncc(CN(C)C(=O)c2cc(-c3ccc(NCCNC)c(C)n3)nc3ccc(C)cc23)c1C [Compound 429] | 0.16 |  |  |
| CCn1ncc(CN(C)C(=O)c2cc(-c3ccc(OCCCNC)c(C)n3)nc3ccc(Cl)cc23)c1C [Compound 430] | 0.69 |  |  |
| CCn1ncc(CN(C)C(=O)c2cc(-c3ccc(OCCNC(C)=O)c(C)n3)nc3ccc(Cl)cc23)c1C [Compound 431] | 0.84 |  |  |

Reference: patent publication US20220144812A1, “QUINOLINE DERIVATIVES AND THEIR USE FOR THE TREATMENT OF CANCER” (Epizyme, Inc., priority 2019, published 2022)
